Blank lines part the entries; values can stand above or below the compound they belong to.
How the values were obtained:
[1] = target: T1, tumor cell catalase (Homo sapiens, UniProt P04040); test: Catalase inhibition/inactivation in MKN-45 cells by challenge with exogenous peroxynitrite, NO donor or glucose oxidase; assay type: cell-based; design: endogenous in cells; host or cells: MKN-45 gastric carcinoma cells; conditions: 200 μM peroxynitrite
T1 sequence (P04040 2-527 limits assumed): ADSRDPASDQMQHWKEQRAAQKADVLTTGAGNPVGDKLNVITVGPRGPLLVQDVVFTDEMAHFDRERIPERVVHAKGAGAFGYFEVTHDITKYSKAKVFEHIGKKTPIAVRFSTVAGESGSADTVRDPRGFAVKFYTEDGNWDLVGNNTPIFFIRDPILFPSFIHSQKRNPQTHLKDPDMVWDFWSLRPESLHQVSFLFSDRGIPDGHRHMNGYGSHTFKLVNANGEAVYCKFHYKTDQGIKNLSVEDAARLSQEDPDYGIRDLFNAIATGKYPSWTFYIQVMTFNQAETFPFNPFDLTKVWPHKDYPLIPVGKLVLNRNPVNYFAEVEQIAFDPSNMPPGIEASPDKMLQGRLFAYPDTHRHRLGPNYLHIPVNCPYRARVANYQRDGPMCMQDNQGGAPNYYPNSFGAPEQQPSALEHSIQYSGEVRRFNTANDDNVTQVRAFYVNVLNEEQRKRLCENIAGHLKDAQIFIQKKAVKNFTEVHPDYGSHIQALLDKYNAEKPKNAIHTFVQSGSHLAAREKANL
Protocol: Direct catalase inhibition with relevance to the induction of apoptosis in tumor cells can be determined by pre-incubating tumor cells at first in the presence of the singlet oxygen scavenger histidine (2 mM) with the substance to be tested in increasing concentration (between 10 and 30 minutes at 37° C.) and subsequently adding peroxynitrite in the concentration range between 10 and 200 μM. The tumor cells are protected from the apoptosis-triggering effect of peroxynitrite by their membranous catalase. An inhibition of the catalase partially or completely cancels this protection and in the presence of peroxynitrite leads to the induction of apoptosis. The presence of 2 mM histidine ensures that the measured induction of apoptosis is not a singlet oxygen-mediated inactivation of the catalase by destruction of its active center. Alternatively, instead of addition of histidine inhibition of the NADPH oxidase by 100 μM AEBSF may take place. With prevented superoxide anion production also no singlet oxygen formation in the test system is possible.
4000 MKN-45 cells per 100 μl in […] were treated with increasing concentrations of monoclonal antibodies against catalase “Anti-KAT” or Anti-EGFR. After 15 minutes either 200 μM peroxynitrite (“PON”), 0.5 mM DEA-NONOate (rapidly decomposing NO donor), or 2 mU/ml glucose oxidase (GOX) that continuously generates hydrogen peroxide were added. After another two hours at 37° C. the percentages of apoptotic cells were determined in duplicate batches.
The principle of identification is based on the fact that tumor cells (here MKN-45 gastric carcinoma cells) are protected from the apoptosis-triggering effect of exogenously added peroxynitrite by their membranous catalase. Addition of catalase inhibitors sensitizes the cells to the effect of exogenous peroxynitrite.
The experiment was performed in analogy to that described in FIG. 9 except that instead of Anti-KAT a monoclonal antibody against SOD was used. The cells were tested in two different densities, namely 4000 and 12 500 cells per 100 μl. The challenge to test the activity of catalase was carried out with 200 μM peroxynitrite, or 0.5 mM DEA NONOate or 2 mU/ml GOX.
Subsequently, 200 μM or no peroxynitrite was added. After 1.5 hours the percentages of apoptotic cells were determined in duplicate batches.
Subsequently, 200 μM or no peroxynitrite was added. After 1 hour the percentages of apoptotic cells were determined in duplicate batches.
12 500 MKN-45 cells in 100 μl medium received 100 μM AEBSF or no additive. After 15 minutes the given concentrations of cyanidine were added and the batches were incubated for 15 minutes at 37° C. Subsequently, 200 μM peroxynitrite (PON) were added or the batches were not treated with peroxynitrite (control). After 1 hour the percentages of apoptotic cells were determined in duplicate batches.
12 500 MKN-45 cells received no addition (control), or 2 mM histidine, or 100 μM AEBSF or 2.4 mM L-NAME immediately before the addition of the given concentrations of salicylic acid (“0 min”) or 20 minutes after addition of salicyl. 20 minutes after the addition of salicylic acid 200 μM peroxynitrite (PON) were added to all batches except the control batches. After another 2 hours the percentages of apoptotic cells were determined in duplicates.

[2] = tested on: MKN-45 gastric carcinoma cells; test: Induction of apoptosis in MKN-45 gastric carcinoma cells (percentages of apoptotic cells); assay type: cell-based, human; conditions: for dependence of the induction of apoptosis on singlet oxygen: 2 mM histidine (singlet oxygen scavenger); for synergistic interaction with salicylic acid in the induction of apoptosis: 6 hours (FIGS. 22-25)
Protocol: 12 500 MKN-45 cells in 100 μl (duplicate batches) were treated with the given concentrations of salicylic acid or remained free from salicylic acid. After 10 minutes the given concentrations of cyanidine were added.
12 500 MKN-45 cells in 100 μl (duplicate batches) were treated with 0.1 μg/ml salicylic acid or remained free from salicylic acid (control). […] After 6.5 hours the percentages of apoptotic cells were determined in duplicate batches.
12 500 MKN-45 cells in 100 μl (duplicate batches) either received no additive (control), 2 mM of the singlet oxygen scavenger histidine or 25 μM Caspase-8 inhibitor. […] After another 15 minutes cyanidine was added in the given concentrations. After 6.5 hours of incubation at 37° C. the percentages of apoptotic cells were determined.
12 500 MKN-45 cells in 100 μl (duplicate batches) either received no additive (control), 2 mM of the singlet oxygen scavenger histidine or 25 μM Caspase-8 inhibitor. […] After 6.5 hours incubation at 37° C. the percentage of apoptotic cells was determined. […]
12 500 MKN-45 cells in 100 μl medium were incubated with increasing concentrations of the given active ingredients, in the presence or absence of 0.1 μg/ml salicylic acid for 6 hours and then, the percentages of the apoptotic cells were determined (repeated determination).

[3] = tested on: Gumbus lymphoma cells; test: Induction of apoptosis in Gumbus lymphoma cells (percentages of apoptotic cells); assay type: cell-based, human; conditions: Gumbus cells
Protocol: 12 500 MKN-45 gastric carcinoma cells (A) or 25 000 Gumbus lymphoma cells (B) in 100 μl complete medium each either remained untreated (control) or received 2 mM histidine (singlet oxygen scavenger), 50 mM taurine (HOCl scavenger), or 2.4 mM L-NAME (NOS inhibitor). In Experiment A, additionally 10 mM mannitol (hydroxyl radical scavenger), 150 μM ABH (peroxidase inhibitor), 100 U/ml MnSOD (superoxide anion scavenger) and 25 μM FeTPPS (peroxynitrite decomposer) were used. Subsequently, the given concentrations of salicylic acid were added. After 5 hours (A) and 4 hours, respectively, of incubation at 37° C. the percentages of apoptotic cells were determined in duplicate batches according to the classical apoptosis features nuclear condensation, nuclear fragmentation, and membrane blebbing. Here, at least 200 cells were evaluated pre batch. […] Inhibitors: singlet oxygen scavenger histidine 2 mM; HOCl scavenger taurine 50 mM, NOS inhibitor L-NAME 2.4 mM, peroxidase inhibitor ABH 150 μM.

[4] = 0.1 μg/ml salicylic acid, MKN-45

- EC50 ([2]; Homo sapiens, applied alone, MKN-45, 6 hours (FIG. 16), read-out: concentration at half-maximum value of induction of apoptosis): ~0.02 µg/mL
Compound: Oc1cc(O)c2cc(O)c(-c3ccc(O)c(O)c3)[o+]c2c1.[Cl-] [cyanidine, cyanidine chloride]
- catalase inhibition / sensitization to peroxynitrite with inhibited superoxide anion synthesis ([1]; 100 μM AEBSF, MKN-45): do not exhibit sensitivity for peroxynitrite
- inhibition of tumor cell catalase (sensitization to exogenous peroxynitrite) ([1]; MKN-45): leads to a sensitization to peroxynitrite
- requirement of singlet oxygen, superoxide anions and NO for catalase inhibition/inactivation ([1]; 2 mM histidine, 100 μM AEBSF or 2.4 mM L-NAME, MKN-45 (FIGS. 14, 15)): requires singlet oxygen, superoxide anions and NO
- induction of apoptosis, substance alone at the concentration of the combination ([2]; 0.15 ng/ml cyanidine alone, 0.08 μg/ml salicylic acid alone, MKN-45 (FIG. 16)): remained ineffective
- induction of apoptosis by the combination with salicylic acid ([2]; 0.15 ng/ml cyanidine with 0.08 μg/ml salicylic acid, MKN-45 (FIG. 16)): maximum induction of apoptosis
- dependence of the synergistic effect with salicylic acid on Caspase-8 ([2]; 0.1 μg/ml salicylic acid, 25 μM Caspase-8 inhibitor, MKN-45, 6.5 hours (FIGS. 18, 19)): independent of Caspase-8
- dependence of the synergistic effect with salicylic acid on singlet oxygen ([2]; 0.1 μg/ml salicylic acid, 2 mM histidine, MKN-45, 6.5 hours (FIGS. 18, 19)): also based on the effect of singlet oxygen
- synergistic effect with salicylic acid in the induction of apoptosis ([2]; 0.1 μg/ml salicylic acid, MKN-45, 6.5 hours (FIG. 17)): remarkable synergistic effect
- concentration at optimum of induction of apoptosis ([2]; applied alone, MKN-45, 6 hours (FIG. 16)): 0.3 µg/mL
- synergistic effect with salicylic acid in the induction of apoptosis ([2]; given concentrations of salicylic acid, MKN-45, 6 hours (FIG. 16)): considerable synergistic effect
- dependence of the induction of apoptosis on Caspase-8 ([2]; substance alone, 25 μM Caspase-8 inhibitor, MKN-45): depends on the activity of dead receptors (such as FAS) and the thus activated Caspase-8
- dependence of the induction of apoptosis on singlet oxygen ([2]; substance alone, MKN-45): depends on singlet oxygen
- induction of apoptosis ([2]; substance alone, 12 500 MKN-45 cells in 100 μl, 4-6.5 hours at 37° C.): concentration-dependent induction of apoptosis

Compound: CCCCCCCCCCCCCCCC(=O)O [palmitic acid]
- synergistic interaction with salicylic acid in the induction of apoptosis [2, 4]: synergistically reacts

Compound: C=CCSCC=C [diallylsulfide]
- synergistic interaction with salicylic acid in the induction of apoptosis [2, 4]: not

Compound: O=C1O[C@H]([C@@H](O)CO)C(O)=C1O [ascorbic acid]
- inhibition of tumor cell catalase (sensitization to exogenous peroxynitrite) ([1]; MKN-45): directly inhibit catalase
- synergism with cyanidine in the induction of apoptosis [2]: Synergism is achieved
- synergism with taxol in the induction of apoptosis [2]: Synergism is achieved

Compound: COc1cc(O)c(CC=C(C)C)c2c1C(=O)CC(c1ccc(O)cc1)O2 (centres unmarked) [isoxanthohumol]
- synergistic interaction with salicylic acid in the induction of apoptosis [2, 4]: synergistically reacts

Compound: C=CCSSCC=C [diallyldisulfide]
- synergistic interaction with salicylic acid in the induction of apoptosis [2, 4]: synergistically reacts

Compound: C=CCN=C=S [allylisothiocyanate]
- synergistic interaction with salicylic acid in the induction of apoptosis [2, 4]: synergistically reacts

Compound: N=C(N)NCCC[C@H](N)C(=O)O [arginine]
- synergistic interaction with salicylic acid in the induction of apoptosis [2, 4]: synergistically reacts

Compound: C[C@@H]1CC[C@H]2[C@@H](C)C(=O)O[C@@H]3O[C@@]4(C)CC[C@@H]1[C@]32OO4 [artemisinin]
- synergistic interaction with salicylic acid in the induction of apoptosis [2, 4]: synergistically reacts

Compound: CC(=O)O[C@H]1C(=O)[C@@]2(C)[C@H]([C@H](OC(=O)c3ccccc3)[C@]3(O)C[C@H](OC(=O)[C@H](O)[C@@H](NC(=O)c4ccccc4)c4ccccc4)C(C)=C1C3(C)C)[C@]1(OC(C)=O)CO[C@@H]1C[C@@H]2O [taxol]
- synergistic effect with salicylic acid on catalase inactivation ([1]; 6.25 ng/ml salicylic acid, MKN-45, 1.5 hours (FIG. 21)): synergistic effect on the catalase inactivation
- concentration up to which a necessary involvement of Caspase-8 can be seen ([2]; alone, 25 μM Caspase-8 inhibitor, MKN-45, 6.5 hours (FIG. 19)): up to 370 ng/ml
- dependence of the induction of apoptosis on singlet oxygen ([2]; substance alone, MKN-45): depends on singlet oxygen
- dependence of the induction of apoptosis on singlet oxygen ([3]; 2 mM histidine (singlet oxygen scavenger)): caused by a fast singlet oxygen-dependent step that inactivates catalase within the first hour
- ROS signal path of the induced apoptosis (inhibitor profile) ([3]; L-NAME, taurine, ABH): at low concentrations of taxol is via the NO/peroxynitrite path, at higher concentrations via the HOCl path

Compound: COc1cc(O)c(CC=C(C)C)c(O)c1C(=O)/C=C/c1ccc(O)cc1 [xanthohumol]
- synergistic interaction with salicylic acid in the induction of apoptosis [2, 4]: synergistically reacts

Compound: N=C(NO)NCC[C@H](N)C(=O)O [NOR-NOHA]
- synergistic interaction with salicylic acid in the induction of apoptosis [2, 4]: synergistically reacts

Compound: O=c1c(O)c(-c2ccc(O)c(O)c2)oc2cc(O)cc(O)c12 [quercetin]
- synergistic interaction with salicylic acid in the induction of apoptosis [2, 4]: synergistically reacts

From patent US9801832B2, “Pharmaceutical composition having synergistic action of direct catalase inhibitors and modulators of no metabolism or of extracellular superoxide anion production which lead to catalase destruction” (Universitaetsklinikum Freiburg, priority 2012, dated 2017)
